Results: BigSolDB 2.1

NC(N)=S
solubility (mole fraction)
Details	303.15 K	308.15 K	313.15 K	318.15 K	323.15 K	328.15 K	333.15 K	338.15 K	343.15 K
in acetonitrile	0.00752	0.00805	0.00864	0.00915	0.00972	0.0101	0.0108	0.011	0.0112
in benzene	0.00283	0.00313	0.0034	0.00372	0.00395	0.00436	0.00496	0.00564	0.0065
in chlorobenzene	0.00127	0.00144	0.00157	0.00174	0.00189	0.00211	0.0023	0.00256	0.00277
in ethanol	0.0283	0.0322	0.0354	0.0401	0.0465	0.0531	0.0592	0.0662	0.0751
in ethyl acetate	0.0199	0.021	0.0221	0.023	0.0244	0.0264	0.0286	0.0307	0.0327
in isopropanol	0.0258	0.0286	0.0325	0.0361	0.0408	0.0445	0.049	0.0534	0.0588
in m-xylene	0.0022	0.00249	0.00277	0.00311	0.00342	0.00375	0.00422	0.00485	0.00556
in methanol	0.0605	0.0654	0.0728	0.0804	0.0932	0.106	0.123	–	–
in n-butanol	0.0207	0.0225	0.0248	0.0273	0.0297	0.0332	0.0361	0.0396	–
in n-octanol	0.0211	0.0242	0.028	0.032	0.0354	0.0394	0.0445	0.0488	0.0526
in n-propanol	0.0242	0.0265	0.0292	0.0324	0.036	0.0398	0.0451	0.0499	0.0544
in toluene	0.0025	0.00289	0.00307	0.00336	0.00372	0.00405	0.00452	0.00525	0.0059
